Assay results: ChEMBL document CHEMBL1145305, “beta-Secretase inhibitors: modification at the P4 position and improvement of inhibitory activity in cultured cells” (Bioorg Med Chem Lett, 2006)

Experiments:
Beta-secretase 1 [1] = target: T1, Beta-secretase 1 (Homo sapiens, UniProt P56817); assay: Inhibition of human recombinant BACE1 at 2 uM
Beta-secretase 1 [2] = target: T1, Beta-secretase 1; assay: Inhibition of human recombinant BACE1 at 0.2 uM
Beta-secretase 1 [3] = target: T1, Beta-secretase 1; assay: Inhibition of BACE1 expressed in HEK293 cells at 100 uM; format: cell-based
Beta-secretase 1 [4] = target: T1, Beta-secretase 1; assay: Inhibition of human recombinant BACE1

T1 sequence (P56817 whole entry): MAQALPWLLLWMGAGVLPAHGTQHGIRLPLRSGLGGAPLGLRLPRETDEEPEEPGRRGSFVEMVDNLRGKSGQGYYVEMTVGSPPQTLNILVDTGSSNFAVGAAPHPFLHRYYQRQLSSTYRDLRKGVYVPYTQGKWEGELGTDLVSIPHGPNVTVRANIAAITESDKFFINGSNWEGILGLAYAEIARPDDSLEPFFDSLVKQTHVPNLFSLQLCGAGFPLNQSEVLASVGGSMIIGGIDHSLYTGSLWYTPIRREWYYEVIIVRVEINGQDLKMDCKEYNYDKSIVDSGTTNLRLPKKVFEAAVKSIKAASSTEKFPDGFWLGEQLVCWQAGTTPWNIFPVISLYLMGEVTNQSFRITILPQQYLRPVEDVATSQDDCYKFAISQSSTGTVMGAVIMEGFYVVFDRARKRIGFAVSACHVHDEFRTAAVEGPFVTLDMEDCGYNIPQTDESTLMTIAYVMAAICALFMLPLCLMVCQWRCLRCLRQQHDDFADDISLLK

| Structure (SMILES) | inhibition (Beta-secretase 1 [1]) | inhibition (Beta-secretase 1 [2]) | inhibition (Beta-secretase 1 [3]) | IC50 (Beta-secretase 1 [4]) |
| --- | --- | --- | --- | --- |
| CC(C)C[C@H](NC(=O)[C@@H](NC(=O)[C@@H](N)CNC(=O)c1[nH]c(=O)[nH]c(=O)c1F)C(C)C)C(=O)N[C@@H](Cc1ccccc1)[C@@H](O)C(=O)Nc1cccc(-c2nn[nH]n2)c1 | 100% | 98% | 63% | – |
| CC(C)C[C@H](NC(=O)[C@@H](NC(=O)[C@@H](N)CNC(=O)c1cc(O)ccc1O)C(C)C)C(=O)N[C@@H](Cc1ccccc1)[C@@H](O)C(=O)Nc1cccc(C(=O)O)c1 | 98% | 84% | 58% | – |
| CC(C)C[C@H](NC(=O)[C@@H](NC(=O)[C@@H](N)CNC(=O)c1cccc(O)c1)C(C)C)C(=O)N[C@@H](Cc1ccccc1)[C@@H](O)C(=O)Nc1cccc(C(=O)O)c1 | 91% | 49% | 57% | – |
| CC(C)C[C@H](NC(=O)[C@@H](NC(=O)[C@@H](N)CNC(=O)c1ccc(O)cc1O)C(C)C)C(=O)N[C@@H](Cc1ccccc1)[C@@H](O)C(=O)Nc1cccc(C(=O)O)c1 | 86% | 59% | 20% | – |
| CC(C)C[C@H](NC(=O)[C@@H](NC(=O)[C@@H](N)CNC(=O)c1[nH]c(=O)[nH]c(=O)c1F)C(C)C)C(=O)N[C@@H](Cc1ccccc1)[C@@H](O)C(=O)Nc1cccc(-c2nnn[nH]2)c1 | – | – | – | 6.5 nM |
| CC(C)C[C@H](NC(=O)[C@@H](NC(=O)[C@@H](N)CNC(=O)c1nn[nH]n1)C(C)C)C(=O)N[C@@H](Cc1ccccc1)[C@@H](O)C(=O)Nc1cccc(-c2nn[nH]n2)c1 | 100% | 98% | 66% | – |
| CC(C)C[C@H](NC(=O)[C@@H](NC(=O)[C@@H](N)CNC(=O)c1ccccc1O)C(C)C)C(=O)N[C@@H](Cc1ccccc1)[C@@H](O)C(=O)Nc1cccc(C(=O)O)c1 | 75% | – | 29% | – |
| CC(C)C[C@H](NC(=O)[C@@H](NC(=O)[C@@H](N)CNC(=O)c1cccc(O)c1O)C(C)C)C(=O)N[C@@H](Cc1ccccc1)[C@@H](O)C(=O)Nc1cccc(C(=O)O)c1 | 89% | 75% | 0% | – |
| CC(C)C[C@H](NC(=O)[C@@H](NC(=O)[C@@H](N)CNC(=O)c1cc(O)cc(O)c1)C(C)C)C(=O)N[C@@H](Cc1ccccc1)[C@@H](O)C(=O)Nc1cccc(C(=O)O)c1 | 94% | 60% | 69% | – |

Results, then the compound that gave them:

| inhibition (Beta-secretase 1 [1]) | inhibition (Beta-secretase 1 [2]) | inhibition (Beta-secretase 1 [3]) | IC50 (Beta-secretase 1 [4]) | Structure (SMILES) |
| --- | --- | --- | --- | --- |
| 82% | 38% | 4% | – | CC(C)C[C@H](NC(=O)[C@@H](NC(=O)[C@@H](N)CNC(=O)c1ccoc1)C(C)C)C(=O)N[C@@H](Cc1ccccc1)[C@@H](O)C(=O)Nc1cccc(C(=O)O)c1 |
| 13% | – | – | – | CC(C)C[C@H](NC(=O)[C@@H](NC(=O)[C@@H](N)CNC(=O)[C@H]1CC(=O)NC(=O)N1)C(C)C)C(=O)N[C@@H](Cc1ccccc1)[C@@H](O)C(=O)Nc1cccc(C(=O)O)c1 |
| 99% | 82% | 76% | – | CC(C)C[C@H](NC(=O)[C@@H](NC(=O)[C@@H](N)CNC(=O)c1nc(O)nc(O)c1F)C(C)C)C(=O)N[C@@H](Cc1ccccc1)[C@@H](O)C(=O)Nc1cccc(C(=O)O)c1 |
| 69% | – | – | – | CC(C)C[C@H](NC(=O)[C@@H](NC(=O)[C@@H](N)CNC(=O)c1cc[nH]c1)C(C)C)C(=O)N[C@@H](Cc1ccccc1)[C@@H](O)C(=O)Nc1cccc(C(=O)O)c1 |
| 100% | 98% | 59% | – | CC(C)[C@H](NC(=O)[C@@H](N)CNC(=O)c1nn[nH]n1)C(=O)N[C@@H](CC1CCCCC1)C(=O)N[C@@H](Cc1ccccc1)[C@@H](O)C(=O)Nc1cccc(-c2nn[nH]n2)c1 |
| 40% | – | – | – | CC(C)C[C@H](NC(=O)[C@@H](NC(=O)[C@@H](N)CNC(=O)[C@@H]1CC(=O)NC(=O)N1)C(C)C)C(=O)N[C@@H](Cc1ccccc1)[C@@H](O)C(=O)Nc1cccc(C(=O)O)c1 |
| 99% | 93% | 65% | – | CC(C)C[C@H](NC(=O)[C@@H](NC(=O)[C@@H](N)CNC(=O)c1cc(O)ccc1O)C(C)C)C(=O)N[C@@H](Cc1ccccc1)[C@@H](O)C(=O)Nc1cccc(-c2nn[nH]n2)c1 |
| 99% | 72% | 73% | – | CC(C)C[C@H](NC(=O)[C@@H](NC(=O)[C@@H](N)CNC(=O)c1nc(O)nc(O)c1I)C(C)C)C(=O)N[C@@H](Cc1ccccc1)[C@@H](O)C(=O)Nc1cccc(C(=O)O)c1 |
| – | – | – | 3.3 nM | CC(C)[C@H](NC(=O)[C@@H](N)CNC(=O)c1nnn[nH]1)C(=O)N[C@@H](CC1CCCCC1)C(=O)N[C@@H](Cc1ccccc1)[C@@H](O)C(=O)Nc1cccc(-c2nnn[nH]2)c1 |
| 99% | 92% | 69% | – | CC(C)[C@H](NC(=O)[C@@H](N)CNC(=O)c1cc(O)ccc1O)C(=O)N[C@@H](CC1CCCCC1)C(=O)N[C@@H](Cc1ccccc1)[C@@H](O)C(=O)Nc1cccc(-c2nn[nH]n2)c1 |
| – | – | – | 5.6 nM | CC(C)[C@H](NC(=O)[C@@H](N)CNC(=O)c1[nH]c(=O)[nH]c(=O)c1F)C(=O)N[C@@H](CC1CCCCC1)C(=O)N[C@@H](Cc1ccccc1)[C@@H](O)C(=O)Nc1cccc(-c2nnn[nH]2)c1 |
| 90% | 54% | 46% | – | CC(C)C[C@H](NC(=O)[C@@H](NC(=O)[C@@H](N)CNC(=O)c1cc(O)nc(O)n1)C(C)C)C(=O)N[C@@H](Cc1ccccc1)[C@@H](O)C(=O)Nc1cccc(C(=O)O)c1 |
| 100% | 97% | 84% | – | CC(C)[C@H](NC(=O)[C@@H](N)CNC(=O)c1[nH]c(=O)[nH]c(=O)c1F)C(=O)N[C@@H](CC1CCCCC1)C(=O)N[C@@H](Cc1ccccc1)[C@@H](O)C(=O)Nc1cccc(-c2nn[nH]n2)c1 |
